Measured values from article PMC3157558, “Huprines as a new family of dual acting trypanocidal–antiplasmodial agents” (Bioorganic & Medicinal Chemistry, 2011).
Structures can show the parent of a compound that is named as a salt. Where two headings read alike, the source gives them in different places.

Legend:
[1] = system: bloodstream form T. brucei; assay: microbe, parasite or virus in culture; type: cell-based, Trypanosoma brucei; details: for SI (selectivity index, ratio of cytotoxic to trypanocidal IC50 values): IC50 against L6 cells/IC50 against T. brucei
Experimental: (§1) Trypanocidal activity was assessed by growing parasites for 48 h in the presence of various drug concentrations and determining the levels which inhibited growth by 50% (IC50) and 90% (IC90). In the case of untreated cultures, cell densities increased from 0.25 × 10^5 to 1 × 10^6 over this period. Cell densities at each drug concentration were determined using a hemocytometer and drug sensitivity was expressed as a percentage of growth of control cells.

[2] = system: rat skeletal myoblast L6 cells; assay: Cytotoxic activity against rat skeletal myoblast L6 cells (Alamar Blue); type: cell-based; details: 6 days incubation, mean of triplicate ± SEM
Experimental: Cytotoxicity against mammalian cells was assessed using microtitre plates following a described procedure.[41] Briefly, L6 cells (a rat skeletal muscle line) were seeded at 1 × 10^4 ml^−1 in 200 μL of growth medium containing different compound concentrations. The plates were incubated for 6 days at 37 °C and 20 μL Alamar Blue (Biosource UK Ltd) was then added to each well. After a further 8 h incubation, the fluorescence was determined using a Gemini fluorescent plate reader (Molecular Devices).

[3] = in vitro; type: cell-based, Trypanosoma brucei; details: 427, rat
Experimental: as §1

[4] = system: acetylcholinesterase; set-up: method as in PMID 10464010, PMID 11101357; details: cited from earlier work
[5] = system: memory and learning activities; details: cited from earlier work
[6] = system: Alzheimer's disease related brain neuropathology; set-up: method as in PMID 20689242; details: transgenic mouse model; cited from earlier work
[7] = bloodstream form T. brucei, pH 7.4, 48 h growth, concentration inhibiting growth by 90%, mean of triplicate ± SEM, read-out: T. brucei IC90
[8] = bloodstream form T. brucei, pH 7.4, 48 h growth, mean of triplicate experiments ± SEM, read-out: T. brucei IC50
[9] = Trypanosoma brucei, bloodstream form T. brucei, pH 7.4, 48 h growth, concentration inhibiting growth by 90%, mean of triplicate ± SEM, read-out: T. brucei IC90
[10] = Trypanosoma brucei, bloodstream form T. brucei, pH 7.4, 48 h growth, mean of triplicate experiments ± SEM, read-out: T. brucei IC50
[11] = Trypanosoma brucei, 48 h, pH 7.4, read-out: T. brucei IC50
[12] = Trypanosoma brucei, 48 h, pH 7.4, read-out: T. brucei IC90

Structure (SMILES)	SI (selectivity index, ratio of cytotoxic to trypanocidal IC50 values) [1]	IC90 [1, 7]	IC50 [1, 8]	IC50 [2]	IC90 [1, 9]	IC50 [1, 10]	further results
CCC1=CC2Cc3nc4ccccc4c(N)c3C(C1)C2 (stereo not drawn) [huprine 12]	12.1	4.53 ± 0.16 µM	1.29 ± 0.16 µM	15.6 ± 1.6 µM	–	–	–
CCC1=CC2Cc3nc4cccc(C)c4c(N)c3C(C1)C2 (stereo not drawn) [huprine 20]	–	8.86 ± 0.15 µM	5.28 ± 1.11 µM	–	–	–	–
C=CCC1=CC2Cc3nc4ccccc4c(N)c3C(C1)C2 (stereo not drawn) [huprine 6]	–	–	–	–	8.52 ± 0.19 µM	4.08 ± 0.45 µM	–
C=CCC1=CC2Cc3nc4cccc(F)c4c(N)c3C(C1)C2 (stereo not drawn) [huprine 11, 9-Allyl-12-amino-1-fluoro-6,7,10,11-tetrahydro-7,11-methanocycloocta[b]quinoline hydrochloride]	–	–	–	–	–	–	IC50 [1, 11]: 3.62 ± 0.54 µM; IC90 [1, 12]: 8.73 ± 0.69 µM
CC(C)C1=CC2Cc3nc4ccccc4c(N)c3C(C1)C2 (stereo not drawn) [huprine 5]	–	–	–	–	–	–	IC50 [1, 11]: 2.06 ± 0.44 µM; IC90 [1, 12]: 4.76 ± 0.82 µM
CC1=CC2Cc3nc4cc(Cl)ccc4c(N)c3C(C1)C2 (stereo not drawn) [huprine 3]	–	–	–	–	2.94 ± 0.2 µM	0.61 ± 0.03 µM	selectivity ratio [3]: 12.8; IC50 ([2]; 144 h): 7.8 ± 0.47 µM; acetylcholinesterase inhibitory potency (rank in words) [4]: most potent acetylcholinesterase inhibitors
CC(C)C1=CC2Cc3nc4cccc(F)c4c(N)c3C(C1)C2 (stereo not drawn) [huprine 10, 12-Amino-1-fluoro-6,7,10,11-tetrahydro-9-isopropyl-7,11-methanocycloocta[b]quinoline hydrochloride]	–	7.75 ± 0.23 µM	2.6 ± 0.55 µM	–	–	–	–
CCC1=CC2Cc3nc4cccc(Cl)c4c(N)c3C(C1)C2 (stereo not drawn) [huprine 18]	15.7	3.11 ± 0.29 µM	1.36 ± 0.19 µM	21.3 ± 1.3 µM	–	–	–
CC(C)(C)C1=CC2Cc3nc4ccccc4c(N)c3C(C1)C2 (stereo not drawn) [huprine 14]	13.2	3.05 ± 0.03 µM	0.88 ± 0.26 µM	11.6 ± 0.5 µM	–	–	acetylcholinesterase inhibitory potency (rank in words) [4]: least potent acetylcholinesterase inhibitors
CC1=CC2Cc3nc4cc(C)ccc4c(N)c3C(C1)C2 (stereo not drawn) [huprine 17]	19.2	3.31 ± 0.59 µM	1.04 ± 0.05 µM	20 ± 0.5 µM	–	–	–
CC(C)C1=CC2Cc3nc4cc(Cl)ccc4c(N)c3C(C1)C2 (stereo not drawn) [huprine 8, 12-Amino-3-chloro-6,7,10,11-tetrahydro-9-isopropyl-7,11-methanocycloocta[b]quinoline hydrochloride]	–	4.34 ± 0.03 µM	2.45 ± 0.37 µM	–	–	–	–
C=CCC1=CC2Cc3nc4cc(Cl)ccc4c(N)c3C(C1)C2 (stereo not drawn) [huprine 9, 9-Allyl-12-amino-3-chloro-6,7,10,11-tetrahydro-7,11-methanocycloocta[b]quinoline hydrochloride]	–	–	–	–	2.87 ± 0.18 µM	0.76 ± 0.07 µM	selectivity ratio ([3]; IC50 against L6 cells/IC50 against T. brucei, read-out: SI (selectivity index, ratio of cytotoxic to trypanocidal IC50 values)): 16.3; IC50 ([2]; 144 h): 12.4 ± 0.4 µM
CCC1=CC2Cc3nc4cc(Cl)ccc4c(N)c3[C@@H](C1)C2 [huprine 4]	–	–	–	–	1.76 ± 0.2 µM	0.84 ± 0.06 µM	IC50 ([2]; 144 h): 12.5 ± 0.4 µM; adverse effects in behavioural studies ([5]; behavioural studies in mice): did not induce adverse effects; effect on memory and learning activities ([5]; middle aged mice): ameliorate memory and learning activities; effect on Alzheimer's disease related brain neuropathology [6]: ameliorate; acetylcholinesterase inhibitory potency (rank in words) [4]: most potent acetylcholinesterase inhibitors
